Patent US20230025435A1, “COMPOSITIONS AND METHODS FOR INCREASING CELLULAR VITALITY AND LONGEVITY AND DECREASING MOLECULAR AGEING” (JUVN3 Holdings, LLC, priority 2020, published 2023)

Assays:
Format in all cases: cell-based
C2C12 cells [1] = assay: Autophagy flux (LC3II/I ratio) in C2C12 cells co-incubated with H2O2 (FIG. 6A); settings: 24 hours with concomitant 400 uM H2O2, BHB 30 ug/mL, CBD 5 ug/mL, selenium 2 ug/mL
Description: (§1) Treatments and cells. 6-hour and 24-hour cell culture treatments were with one of the following compounds: 1. Control or “vehicle” (DMSO+phosphate-buffered saline only); 2. Niagen® (nicotinamide riboside (NR)(5 μg/mL); 3. BHB (beta hydroxybutyrate) (30 ug/mL); 4. CBD (cannabidiol) (5 ug/mL); 5. Olive leaf (5 ug/mL); 6. Dynamine (1 ug/mL); 7. Selenium (2 ug/mL); 8. Tributyrin (5 ug/mL)
(§2) Treatment materials and methods. C2C12 cells were treated with compounds 1-8 as listed above for 6 hours without hydrogen peroxide (H2O2) (termed “unperturbed cells” throughout); or cells were treated with compounds 1-8 above for 24 hours with a concomitant 400 uM hydrogen peroxide (H2O2).
The C2C12 line resembles mature muscle cells given that they are multinucleated and are past the rapid growth/proliferation phase.
Autophagy flux (or activity) was assessed by assaying the LC3II/I ratio. This assay has been deemed the “gold standard” in autophagy monitoring (see e.g., Autophagy, 2007 November-December; 3(6):542-5).

C2C12 cells [2] = assay: Cellular oxidative stress (4HNE assay) in C2C12 cells with H2O2 (FIG. 6C); settings: 24 hours with concomitant 400 uM H2O2, BHB 30 ug/mL
Description: as §1, §2
Oxidative stress was assessed using the 4HNE assay which is a product of cellular lipid oxidation (see e.g., Am J Physiol Cell Physiol. 2016 Oct. 1; 311(4): C537-C543).

C2C12 cells [3] = assay: Total antioxidant capacity (Trolox equivalent antioxidant capacity, TEAC) in C2C12 cells with H2O2 (FIG. 5B); settings: 24 hours with concomitant 400 uM H2O2, selenium 2 ug/mL, tributyrin 5 ug/mL
Description: Treatments and cells. 6-hour and 24-hour cell culture treatments were with one of the following compounds: 1. Control or “vehicle” (DMSO+phosphate-buffered saline only); 2. […]® (nicotinamide riboside (NR)(5 μg/mL); 3. BHB (beta hydroxybutyrate) (30 ug/mL); 4. CBD (cannabidiol) (5 ug/mL); 5. Olive leaf (5 ug/mL); 6. Dynamine (1 ug/mL); 7. […] Tributyrin (5 ug/mL) Treatment materials and methods. C2C12 cells were treated with compounds 1-8 as listed above for 6 hours without hydrogen peroxide (H2O2) (termed “unperturbed cells” throughout); or cells were treated with compounds 1-8 above for 24 hours with a concomitant 400 uM hydrogen peroxide (H2O2). Total antioxidant capacity was assessed using a Trolox equivalent antioxidant capacity (TEAC) assay.

SMILES	autophagy (LC3II/I ratio) (C2C12 cells [1])	cellular oxidative stress (4HNE) (C2C12 cells [2])	total antioxidant capacity (Trolox) (C2C12 cells [3])	total antioxidant capacity (Trolox) (C2C12 cells [3]; listed as Selenium)	total antioxidant capacity (Trolox) (C2C12 cells [3]; listed as Tributyrin)
CC(O)CC(=O)O (stereo not drawn) [BHB, beta hydroxybutyrate]	increased autophagy	decrease cellular oxidative stress	–	–	–
[Se] [selenium, Selenium]	increased autophagy	–	increase (e.g., restore) total antioxidant activity	increase or restore antioxidant capacity	–
C=C(C)[C@@H]1CCC(C)=C[C@H]1c1c(O)cc(CCCCC)cc1O [CBD, cannabidiol]	increased autophagy	–	–	–	–
CCCC(=O)OCC(COC(=O)CCC)OC(=O)CCC [tributyrin, Tributyrin]	–	–	increase (e.g., restore) total antioxidant activity	–	increase or restore antioxidant capacity
